Source: patent US9833497B2, “Human originated EGF domain proteins and use of the same” (CHENGDU SOURCEBIO LIMITED-LIABILITY COMPANY, priority 2013, dated 2017)

Legend:
Assay type in all cases: cell-based
E. coli DH5α = assay: Antibacterial activity: MIC and growth curve against E. coli DH5α in 96-well plate; details: minimal inhibitory concentration against E. coli DH5α; 96-well plate, 5×10^5 CFU/mL, 37° C., judged after 8 h
How it was run: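 Log-phase DH5α (OD600 about 0.5, 37° C, 185 rpm in LB) was pelleted, resuspended in fresh LB and seeded at 5×10^5 CFU/mL with recombinant protein at 50, 25 and 12.5 μg/mL (two-fold series), in triplicate. Plates were shaken at 175 rpm, 37° C, and OD600 was read every 30 min. MIC was the lowest concentration with no growth.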

E. coli BL21 = assay: MIC against Gram-negative bacteria: E. coli BL21
How it was run: (§1)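 Growth inhibition by human EGF domain proteins was scored in LB liquid culture seeded at 5×10^5 CFU/mL. Protein was applied as a two-fold dilution series in triplicate, with shaking incubation at 37° C; MIC is the lowest concentration giving no growth.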

Serratia marcescens = assay: MIC against Gram-negative bacteria: Serratia marcescens
How it was run: as §1

Citrobacter diversus = assay: MIC against Gram-negative bacteria: Citrobacter diversus
How it was run: as §1

Moraxella catarrhalis = assay: MIC against Gram-negative bacteria: Moraxella catarrhalis
How it was run: as §1

Klebsiella pneumonia = assay: MIC against Gram-negative bacteria: Klebsiella pneumonia
How it was run: as §1

Proteus vulgaris = assay: MIC against Gram-negative bacteria: Proteus vulgaris
How it was run: as §1

Pseudomonas aeruginosa = assay: MIC against Gram-negative bacteria: Pseudomonas aeruginosa
How it was run: as §1

Aeromonas hydrophila = assay: MIC against Gram-negative bacteria: Aeromonas hydrophila
How it was run: as §1

Proteus mirabilis = assay: MIC against Gram-negative bacteria: Proteus mirabilis
How it was run: as §1

Enterobacter cloacae = assay: MIC against Gram-negative bacteria: Enterobacter cloacae
How it was run: as §1

[1] = 96-well plate, 5×10^5 CFU/mL, 37° C., 10 h

PRT173 (CSSSPCSNGAKCVDLGDAYLCRCQAGFSGRHC; listed as Homo sapiens)
MIC (E. coli DH5α): 12.5 µg/mL | MIC (μg/mL) E. coli BL21 (E. coli BL21; E. coli BL21, 10 h cultivation at 37° C., 5×10^5 CFU/mL): 50 µg/mL | MIC (μg/mL) S. marcescens (Serratia marcescens; S. marcescens, 10 h cultivation at 37° C., 5×10^5 CFU/mL): 25 µg/mL | MIC (μg/mL) C. diversus (Citrobacter diversus; C. diversus, 10 h cultivation at 37° C., 5×10^5 CFU/mL): 25 µg/mL | MIC (μg/mL) M. catarrhalis (Moraxella catarrhalis; M. catarrhalis, 10 h cultivation at 37° C., 5×10^5 CFU/mL): 50 µg/mL | MIC (μg/mL) K. pneumonia (Klebsiella pneumonia; K. pneumonia, 10 h cultivation at 37° C., 5×10^5 CFU/mL): 50 µg/mL | MIC (μg/mL) P. vulgaris (Proteus vulgaris; P. vulgaris, 10 h cultivation at 37° C., 5×10^5 CFU/mL): 12.5 µg/mL | MIC (μg/mL) P. aeruginosa (Pseudomonas aeruginosa; P. aeruginosa, 10 h cultivation at 37° C., 5×10^5 CFU/mL): 12.5 µg/mL | MIC (μg/mL) A. hydrophila (Aeromonas hydrophila; A. hydrophila, 10 h cultivation at 37° C., 5×10^5 CFU/mL): 12.5 µg/mL | MIC (μg/mL) P. mirabilis (Proteus mirabilis; P. mirabilis, 10 h cultivation at 37° C., 5×10^5 CFU/mL): 25 µg/mL | MIC (μg/mL) E. cloacae (Enterobacter cloacae; E. cloacae, 10 h cultivation at 37° C., 5×10^5 CFU/mL): 25 µg/mL

PRT941 (EINECSSHPCLNEGTCVDGLGTYRCSCPLGYTGKNCQ; listed as Homo sapiens)
MIC (E. coli DH5α): 25 µg/mL | MIC (E. coli BL21; E. coli BL21, 10 h cultivation at 37° C.): 50 µg/mL | MIC (Serratia marcescens; S. marcescens, 10 h cultivation at 37° C.): 12.5 µg/mL | MIC (Citrobacter diversus; C. diversus, 10 h cultivation at 37° C.): 12.5 µg/mL | MIC (Moraxella catarrhalis; M. catarrhalis, 10 h cultivation at 37° C.): 50 µg/mL | MIC (Klebsiella pneumonia; K. pneumonia, 10 h cultivation at 37° C.): 50 µg/mL | MIC (Proteus vulgaris; P. vulgaris, 10 h cultivation at 37° C.): 50 µg/mL | MIC (Pseudomonas aeruginosa; P. aeruginosa, 10 h cultivation at 37° C.): 12.5 µg/mL | MIC (Aeromonas hydrophila; A. hydrophila, 10 h cultivation at 37° C.): 50 µg/mL | MIC (Proteus mirabilis; P. mirabilis, 10 h cultivation at 37° C.): 12.5 µg/mL | MIC (Enterobacter cloacae; E. cloacae, 10 h cultivation at 37° C.): 12.5 µg/mL

PRT515 (CHCDPIGSLNEVCVKDEKHARRGLAPGSCHCKTGFGGVSCDRCARGYTGYPDCKA; listed as Homo sapiens)
MIC (E. coli DH5α): 25 µg/mL | MIC against E. coli BL21 (E. coli BL21; [1]): 12.5 µg/mL | MIC against S. marcescens (Serratia marcescens; [1]): 50 µg/mL | MIC against C. diversus (Citrobacter diversus; [1]): 25 µg/mL | MIC against M. catarrhalis (Moraxella catarrhalis; [1]): 100 µg/mL | MIC against K. pneumonia (Klebsiella pneumonia; [1]): 12.5 µg/mL | MIC against P. vulgaris (Proteus vulgaris; [1]): 12.5 µg/mL | MIC against P. aeruginosa (Pseudomonas aeruginosa; [1]): 25 µg/mL | MIC against A. hydrophila (Aeromonas hydrophila; [1]): 50 µg/mL | MIC against P. mirabilis (Proteus mirabilis; [1]): 50 µg/mL | MIC against E. cloacae (Enterobacter cloacae; [1]): 25 µg/mL

PRT627 (CTCNPAGSLDTCDPRSGRCPCKENVEGNLCDRCRPGTFNLQPHNPAGCSS; listed as Homo sapiens)
MIC (E. coli DH5α): 12.5 µg/mL | MIC E. coli BL21 (E. coli BL21; [1]): 25 µg/mL | MIC S. marcescens (Serratia marcescens; [1]): 50 µg/mL | MIC C. diversus (Citrobacter diversus; [1]): 12.5 µg/mL | MIC M. catarrhalis (Moraxella catarrhalis; [1]): 12.5 µg/mL | MIC K. pneumonia (Klebsiella pneumonia; [1]): 12.5 µg/mL | MIC P. vulgaris (Proteus vulgaris; [1]): 12.5 µg/mL | MIC P. aeruginosa (Pseudomonas aeruginosa; [1]): 12.5 µg/mL | MIC A. hydrophila (Aeromonas hydrophila; [1]): 12.5 µg/mL | MIC P. mirabilis (Proteus mirabilis; [1]): 50 µg/mL | MIC E. cloacae (Enterobacter cloacae; [1]): 12.5 µg/mL

PRT121 (CGPCFNNGVPILEGTSCRCQCRLGSLGAACE; listed as Homo sapiens)
MIC (E. coli DH5α): 25 µg/mL | MIC (μg/mL) E. coli BL21 (E. coli BL21; E. coli BL21, 96-well plate, 5×10^5 CFU/mL, 37° C., 10 h): 12.5 µg/mL | MIC (μg/mL) S. marcescens (Serratia marcescens; Serratia marcescens, 96-well plate, 5×10^5 CFU/mL, 37° C., 10 h): 25 µg/mL | MIC (μg/mL) C. diversus (Citrobacter diversus; Citrobacter diversus, 96-well plate, 5×10^5 CFU/mL, 37° C., 10 h): 50 µg/mL | MIC (μg/mL) M. catarrhalis (Moraxella catarrhalis; Moraxella catarrhalis, 96-well plate, 5×10^5 CFU/mL, 37° C., 10 h): 12.5 µg/mL | MIC (μg/mL) K. pneumonia (Klebsiella pneumonia; Klebsiella pneumonia, 96-well plate, 5×10^5 CFU/mL, 37° C., 10 h): 12.5 µg/mL | MIC (μg/mL) P. vulgaris (Proteus vulgaris; Proteus vulgaris, 96-well plate, 5×10^5 CFU/mL, 37° C., 10 h): 50 µg/mL | MIC (μg/mL) P. aeruginosa (Pseudomonas aeruginosa; Pseudomonas aeruginosa, 96-well plate, 5×10^5 CFU/mL, 37° C., 10 h): 25 µg/mL | MIC (μg/mL) A. hydrophila (Aeromonas hydrophila; Aeromonas hydrophila, 96-well plate, 5×10^5 CFU/mL, 37° C., 10 h): 12.5 µg/mL | MIC (μg/mL) P. mirabilis (Proteus mirabilis; Proteus mirabilis, 96-well plate, 5×10^5 CFU/mL, 37° C., 10 h): 25 µg/mL | MIC (μg/mL) E. cloacae (Enterobacter cloacae; Enterobacter cloacae, 96-well plate, 5×10^5 CFU/mL, 37° C., 10 h): 50 µg/mL

PRT500 (CNCDPVGSLSSVCIKDDLHSDLHNGKQPGQCPCKEGYTGEKCDRCQLGYKDYPTCVS; listed as Homo sapiens)
MIC (E. coli DH5α): 25 µg/mL | MIC against E. coli BL21 (E. coli BL21; [1]): 50 µg/mL | MIC against S. marcescens (Serratia marcescens; [1]): 25 µg/mL | MIC against C. diversus (Citrobacter diversus; [1]): 25 µg/mL | MIC against M. catarrhalis (Moraxella catarrhalis; [1]): 12.5 µg/mL | MIC against K. pneumonia (Klebsiella pneumonia; [1]): 12.5 µg/mL | MIC against P. vulgaris (Proteus vulgaris; [1]): 50 µg/mL | MIC against P. aeruginosa (Pseudomonas aeruginosa; [1]): 25 µg/mL | MIC against A. hydrophila (Aeromonas hydrophila; [1]): 50 µg/mL | MIC against P. mirabilis (Proteus mirabilis; [1]): 25 µg/mL | MIC against E. cloacae (Enterobacter cloacae; [1]): 25 µg/mL
